Measurements published in patent publication US20260265267A1, “NOVEL COMPOUNDS WITH MTORC2-INHIBITORY ACTIVITY AND USES THEREOF” (Aliad Biopharma, priority 2023, published 2026).

Key:
LC3-II = LC3-II levels in primary cultured cerebral neurons; assay type: cell-based, SD mice; details: for effect on LC3-II: 500 nM or 100 nM, time course to 24 hours; for LC3-II (% control): 24 hours
Description: Specifically, primary neural cells were cultured from the cerebral cortex of E16 embryos of SD […] with a gestational age 16-day (Orient Bio). The extracted brain was separated into the left and right hemispheres, the meninges were removed, and the brains were treated with trypsin in Ca^2+/Mg^2+-free HBSS solution. […] The cells were seeded at a density of 19,000 cells/cm^2 onto 35 mm culture dishes coated with 50 μg/ml poly-D-Lysine (Sigma, P0899) and 1 μg/ml laminin (Invitrogen, 23017-015), and then maintained in neurobasal complete media supplemented with B27 (Gibco, 17504-044) in a 5% CO2 incubator.
Therefore, the evaluation of mTORC2 inhibitory activity in primary cultured cerebral cells was conducted using the same method as in Experimental Example 1, except that each compound was treated at concentrations of 500 nM or 100 nM for 24 hours. The time-dependent changes in Akt Ser473 phosphorylation, Akt Thr308 phosphorylation, and LC3-II levels were measured by Western blot analysis.

[1] = system: amyloid plaques in the brain of 5×FAD mouse; experiment: Amyloid plaque removal in the brain of 5×FAD mice (6E10 antibody, thioflavin-S staining); assay type: in vivo; details: 5 mg/kg, 14 days
Description: (§1) In order to evaluate the efficacy of HN2210, HN2213, and HN2313 on Alzheimer's disease-related symptoms, specifically regarding 1) memory and cognitive impairment, 2) amyloid plaques, 3) neurofibrillary tangles (NFTs), and 4) brain inflammation, an in vivo efficacy assessment of HN2210, HN2213 and HN2313 was conducted using 5×FAD Alzheimer's disease model mice. The 5×FAD mice were purchased from Jackson Lab, USA (Cat #034840-JAX) and crossed once with C57bl6 mice to produce F1 heterozygous offspring (Het). The compound was administered via intraperitoneal injection to 6-month-old 5×FAD Het mice, followed by behavioral testing. The normal control mice, which were littermates of the 5×FAD Het mice, were aged to 6 months and received DMSO injection at the same volume.
(§2) In order to assess the amyloid plaque removal effect of HN2210, HN2213, and HN2313 compounds in the brains of Alzheimer's disease model mice, the following test was conducted using 5×FAD-DMSO mice without compound treatment, 5×FAD mice treated with HN2210, HN2213, or HN2313 compounds, and normal mice as controls.
Specifically, brain slices sectioned in the coronal plane were selected for every fifth slice from the anterior to the posterior parts of the brain and stained with the 6E10 antibody or thioflavin-S. The 6E10 antibody stains both […] and amyloid plaques, while thioflavin-S specifically stains amyloid plaques. DNA was co-stained with DAPI. The dentate gyrus (DG) region of the hippocampus, where amyloid plaques tend to accumulate heavily, was examined using a confocal scanning microscope, and the images are shown in FIGS. 9a to 9c.

[2] = system: 5×FAD Alzheimer's disease model mice; experiment: Morris water maze test in 5×FAD mice (spatial perceptive ability); assay type: in vivo; details: for Morris water maze time spent swimming in the target quadrant, % of the normal control level / Morris water maze time spent swimming in the target quadrant, increase compared to 5×FAD-DMSO mice: 14 days (FIG. 8c); for Morris water maze time spent in the target quadrant, % of the normal control level / Morris water maze time spent in the target quadrant, increase compared to 5×FAD-DMSO mice: 14 days (FIG. 6b)
Description: as §1
Specifically, a 50 cm deep water tank filled with water (25.0±1.0° C.) was divided into four equal quadrants, and a platform (12 cm diameter) was placed 3 mm below the water surface in the center of one quadrant. The training test consisted of a 1-minute free swimming practice without the platform foothold on the first day and a four days of training, during which the animal used environmental cues to locate the hidden platform foothold, with four trials per day. The following day, the platform was removed, and the time the experimental animal spent in the target quadrant was measured (probe trial). Videos were recorded and analyzed using the Ethovision video tracking system (Noldus Information Technology, Wageningen, Netherlands). The data included the time spent swimming in the target quadrant and the number of crossings over the virtual platform's previous position.

[3] = system: activated microglia in the brain of 5×FAD mice; experiment: Anti-inflammatory effect in the brain of 5×FAD mice (IBA-1 antibody staining); assay type: in vivo; details: 5 mg/kg, 14 days
Description: as §1
In order to assess the anti-inflammatory effect of HN2210, HN2213, and HN2313 compounds in the brains of Alzheimer's disease model mice, the following test was conducted using 5×FAD-DMSO mice without compound treatment, 5×FAD mice treated with HN2210, HN2213, or HN2313 compounds, and normal mice as controls. Specifically, brain inflammation is mediated by the activation of microglia, which can be stained using the IBA-1 antibody. Therefore, inflammation in the hippocampus of 5×FAD mouse can be assessed using immunostaining with the IBA-1 antibody. Brain slices were double-stained with the IBA-1 antibody and DAPI to label nuclei, and the dentate gyrus region of the hippocampus was observed under a confocal scanning microscope.

mTORC2 = mTORC2 inhibitory activity in primary cultured cerebral neurons (Akt Ser473 phosphorylation); assay type: cell-based, SD mice; details: for effect on Akt Ser473 phosphorylation / decrease in AKT Ser473 phosphorylation at 24 hours: 500 nM or 100 nM; for effect on Akt Ser473 phosphorylation / pSer473-AKT/AKT (% control): 24 hours
Description: Specifically, primary neural cells were cultured from the cerebral cortex of E16 embryos of SD mice with a gestational age 16-day (Orient Bio). The extracted brain was separated into the left and right hemispheres, the meninges were removed, and the brains were treated with trypsin in Ca^2+/Mg^2+-free HBSS solution.
The time-dependent changes in Akt Ser473 phosphorylation, Akt Thr308 phosphorylation, and LC3-II levels were measured by Western blot analysis.

mTORC1 = mTORC1 inhibitory activity in primary cultured cerebral neurons (S6K Thr389 phosphorylation); assay type: cell-based, SD mice; details: for pThr389-S6K/S6K (% control): 24 hours
[4] = system: tau aggregates in the brain of 5×FAD mice; experiment: Tau aggregate removal in the brain of 5×FAD mice (AT8 antibody staining); assay type: in vivo; details: 5 mg/kg, 14 days
Description: as §1
as §2, with “neurofibrillary tangle” for “amyloid plaque”
Specifically, AT8 antibody stains hyperphosphorylated Tau protein that constitutes tau aggregates. Therefore, tau aggregates formed in the hippocampus of 5×FAD mouse can be measured using immunostaining with the AT8 antibody. Brain slices were triple-stained with the AT8 antibody, MAP2 which is a neuronal marker, and DAPI to label nuclei, and the dentate gyrus region of the hippocampus was observed under a confocal scanning microscope.

Row | Structure (SMILES) | effect on LC3-II (LC3-II) | LC3-II (% control) (LC3-II; 500 nM) | reduction of 6E10 signals in the dentate gyrus compared to the 5×FAD-DMSO group [1] [%] | reduction of thioflavin-S signals in the dentate gyrus compared to the 5×FAD-DMSO group [1] [%] | Morris water maze number of target crossings, % of the normal control level ([2]; 5 mg/kg, 14 days (FIG. 6a)) | Morris water maze number of target crossings, increase compared to 5×FAD-DMSO mice ([2]; 5 mg/kg, 14 days (FIG. 6a)) [fold] | Morris water maze time spent in the target quadrant, % of the normal control level ([2]; 5 mg/kg) | Morris water maze time spent in the target quadrant, increase compared to 5×FAD-DMSO mice ([2]; 5 mg/kg) [fold] | reduction of IBA-1 antibody signals in the dentate gyrus compared to the 5×FAD-DMSO group [3] [%] | effect on Akt Ser473 phosphorylation (mTORC2) | decrease in AKT Ser473 phosphorylation at 24 hours (mTORC2) [%] | pSer473-AKT/AKT (% control) (mTORC2; 500 nM) | pThr389-S6K/S6K (% control) (mTORC1; 500 nM) | reduction of AT8 antibody signals in the dentate gyrus compared to the 5×FAD-DMSO group [4] [%] | selectivity for mTORC2 over mTORC1 (mTORC2) | also measured
1 | O=C1c2cc(F)c(N3CCOCC3)cc2COc2cc3c(cc21)OCO3 [HN2210, 8-(morpholino)-9-fluoro[2]benzoxepino[3,4-f]-1,3-benzodioxol-11(6H)-one] | markedly increased | 348 | 53 | 38 | approximately 59% | 3.96 | approximately 96% | 1.74 | 50 | reduce Akt Ser473 phosphorylation | 67 | 33 | 23 | 61 |  | Morris water maze number of target crossings, % of the normal control level ([2]; 0.2 mg/kg, 14 days (FIG. 8b)): approximately 30%; Morris water maze number of target crossings, increase compared to 5×FAD-DMSO mice ([2]; 0.2 mg/kg, 14 days (FIG. 8b)): 2.02 fold; Morris water maze time spent swimming in the target quadrant, % of the normal control level ([2]; 0.2 mg/kg): approximately 87%; Morris water maze time spent swimming in the target quadrant, increase compared to 5×FAD-DMSO mice ([2]; 0.2 mg/kg): 2.14 fold; Morris water maze number of target crossings, % of the normal control level ([2]; 1 mg/kg, 14 days (FIG. 8b)): ~63%; Morris water maze number of target crossings, increase compared to 5×FAD-DMSO mice ([2]; 1 mg/kg, 14 days (FIG. 8b)): 4.27 fold; Morris water maze time spent swimming in the target quadrant, % of the normal control level ([2]; 1 mg/kg): ~85%; Morris water maze time spent swimming in the target quadrant, increase compared to 5×FAD-DMSO mice ([2]; 1 mg/kg): 2.07 fold; Morris water maze number of target crossings, % of the normal control level ([2]; 5 mg/kg, 14 days (FIG. 8b)): ~86%; Morris water maze number of target crossings, increase compared to 5×FAD-DMSO mice ([2]; 5 mg/kg, 14 days (FIG. 8b)): 5.84 fold; Morris water maze time spent swimming in the target quadrant, % of the normal control level ([2]; 5 mg/kg): ~96%; Morris water maze time spent swimming in the target quadrant, increase compared to 5×FAD-DMSO mice ([2]; 5 mg/kg): 2.34 fold; decrease in AKT Ser473 phosphorylation from 30 minutes to 6 hours (mTORC2; from 30 minutes to 6 hours): approximately 50%; effect on S6K Thr389 phosphorylation (mTORC1; 500 nM or 100 nM, time course to 24 hours (HN2304: from 6 to 24 hours)): reduced p70S6K Thr389 phosphorylation; increase in S6K Thr389 phosphorylation at 3 hours (mTORC1; at 3 hours): 49%; decrease in S6K Thr389 phosphorylation at 24 hours (mTORC1; at 24 hours): 77%
2 | O=C1c2cc(F)c(NCc3ccccc3)cc2COc2cc3c(cc21)OCO3 [HN2213, 8-(benzylamino)-9-fluoro[2]benzoxepino[3,4-f]-1,3-benzodioxol-11(6H)-one] | significantly increased | 336 | 29 | 28 | ~60% | 4 | ~105% | 1.91 | 24 | reduce Akt Ser473 phosphorylation | 62 | 38 | 137 | 59 | selective mTORC2 inhibitors | increase in S6K Thr389 phosphorylation in a time-dependent manner (mTORC1; time course to 24 hours): 37%
3 | O=C1c2cc(F)c(NC3CCCC3)cc2COc2cc3c(cc21)OCO3 [HN2313, 8-(cyclopentylamino)-9-fluoro-[1,3]dioxolo[4′,5′:4,5]benzo[1,2-b]benzo[e]oxepin-11(6H)-one] | not affected |  | 38 | 35 | ~82% | 5.5 | ~84% | 1.53 | 50 | reduce Akt Ser473 phosphorylation | 66 |  |  | 49 | selective mTORC2 inhibitors | LC3-II (% control) (LC3-II; 100 nM): 86 % control; pSer473-AKT/AKT (% control) (mTORC2; 100 nM): 34 % control; AKT Ser473 phosphorylation from 1 to 12 hours (mTORC2; from 1 to 12 hours): increased AKT Ser473 phosphorylation significantly; pThr389-S6K/S6K (% control) (mTORC1; 100 nM): 141 % control; increase in S6K Thr389 phosphorylation from 1 to 6 hours (mTORC1; from 1 to 6 hours): 2~3 fold
